Read-outs that look alike come from different tables or passages of the source.
Legend:
[1] = molecular target: HDAC1 (Homo sapiens, UniProt Q13547); experiment: in vitro biochemical HDAC inhibition assay
[2] = molecular target: HDAC2 (Homo sapiens, UniProt Q92769); experiment: in vitro biochemical HDAC inhibition assay
[3] = test system: CD34+ bone marrow cells undergoing erythroid differentiation; experiment: Affymetrix GeneChip mRNA expression profiling; type: cell-based, human
Excerpt: The knockdown results were derived from an independent analysis of publically available raw data (Bradner et al., “Chemical genetic strategy identifies histone deacetylase 1 (HDAC1) and HDAC2 as therapeutic targets in sickle cell disease”, PNAS, vol. 107(28), pp. 12617-22 (2010)) and detection of mRNA by Affymetrix GeneChip.
Among the genes differentially regulated by both pharmacological inhibition and genetic ablation of HDAC1/2 were Bcl11a and Sox6, known HbG repressors, and Gata2, a potential HbG activator.
Then, the cells were differentiated by exposure to either vehicle (control) or Compound 001. FACS was performed at day 5. […] GlyA.
The mechanism through which HDAC1/2 inhibition induces HbG by performing gene expression profiling was interrogated. Because HDAC inhibition prevented cells from fully upregulating GlyA (FIG. 19E), RNA was isolated at day 5 of differentiation, a time point prior to the observed differentiation block.
Next, using the GeneChip data, a candidate gene approach was taken to determine which HbG modulators were changing as a result of both chemical and genetic HDAC1/2 inhibition (FIG. 1A). […] In contrast, other HbG repressors, such as Myb and Klf1 were unaffected. Expression changes were not observed for other genes involved in HbG regulation, including KDM1A (LSD1), NR2C1 (TR2) and NR2C2 (TR4), NR2F2 (COUP-TFII) and nuclear factor Y subunits, and proteins known to associate with Bcl11a12 (data not shown).

[4] = test system: erythroblasts derived from CD34+ cells isolated from human bone marrow; experiment: QRT-PCR time course of mRNA expression during erythroid differentiation; type: cell-based
Excerpt: Gata2 mRNA was induced while Gata1 mRNA was unaffected. The culture system was as described by Sankaran et al., “Human fetal hemoglobin expression is regulated by the developmental stage-specific repressor BCL11A”, Science, vol. 322(5909), pp. 1839-42 (2008).
Gata2 mRNA was induced while Gata1 mRNA was unaffected. The culture system as described by Bradner et al., PNAS, vol. 107(28), pp. 12617-22 (2010). […]
The cells were then differentiated by exposure to either vehicle or Compound 001. RNA was measured at days 0, 2, 3, 4, 5, 6, and 8.
Gata1 increased and Gata2 decreased in control cells during the 5 days differentiation period, a result consistent with the known expression pattern of these genes during erythropoiesis (FIG. 1C).

[5] = test system: Gata2 mRNA; experiment: induction of Gata2 mRNA in erythroid progenitors by HDAC1,2 inhibitors; type: cell-based, human; details: erythroid progenitors differentiated 3 days with compound; FIG. 2A-C
Excerpt: Human bone marrow derived CD34+ cells were expanded for 7 days as described by Sankaran et al., Science, vol. 322(5909), pp. 1839-42 (2008). Cells were then differentiated, in the presence of the indicated compound (i.e., Compounds 001, Compound Y, Compound 2005, Compound 2004, Compound 2003), for 3 days in media supporting erythropoiesis (Hu et al., “Isolation and functional characterization of human erythroblasts at distinct stages: implications for understanding of normal and disordered erythropoiesis in vivo”, Blood, vol. 121(16), pp. 3246-53 ([…])). FIG. 2A, FIG. 2B, and FIG. 2C each represents an experimental series performed on different days and with different donor cells.

[6] = test system: sickle donor cells; experiment: HbG induction in sickle donor cells; type: cell-based; details: peripheral blood mononuclear cells from four different donors; FIG. 11B
Excerpt: Then, the cells from each donor were differentiated by exposure to either vehicle (control) or Compound 001. RNA samples of HbG were taken from each group of donor cells at days 0, 3, and 5.

[7] = test system: Human CD34+ bone marrow cells; experiment: erythroid maturation in CS1 by CD71/GlyA flow cytometry; type: cell-based; details: 1 μM
Excerpt: To investigate the effects of HDAC inhibition on later stages of erythroid maturation, differentiation in CS1 was followed by flow cytometry using fluorescent antibodies against the transferrin receptor (CD71) and glycophorin A (GlyA). […] The majority of vehicle control cells continued to differentiate, becoming CD71^posGlyA^pos by day 8. […] CD71^posGlyA^mid cells are equivalent to proerythroblasts (ProE), while CD71^posGlyA^pos cells include the more differentiated basophilic and polychromatic erythroblasts.

[8] = blood cell counts in monkeys; type: in vivo, cynomolgus monkey; details: monkey
Method: B. Cynomolgus monkey were dosed once daily by oral gavage for 5 consecutive days at 0 mg/kg, 25 mg/kg, or 75 mg/kg per dose (FIG. 25B). Sampling as described in ‘A’.
For each individual monkey, white blood cell counts were expressed relative to their predose level (time=day 0). Points are the average of n=3 animals with error bars showing the standard deviation.

[9] = dosing schedule study in rats; type: in vivo, rat; details: 30 mg/kg
Method: IV. Rats were dosed with 30 mg/kg once daily by oral gavage according to the above schedule. […] Group 1=daily dosing, Group 2=5 on 2 off, Group 3=3 on 4 off, Group 4=every other day, Group 5=control. N=4 animals per group (FIG. 28A).
Data points are the average of N=4 animals. HbE2 mRNA level was determined by quantitative real time PCR and expressed relative to HbB mRNA control. Data for each animal was then normalized to the expression level prior to the onset of dosing (average of day −3 and day 0 values).
Data points are the average of N=4 animals.

[10] = Compound 001 1 μM vs vehicle, day 5
[11] = 1 μM for 6 days, culture conditions supporting late erythroblasts, FIG. 1C
[12] = 1 μM for 8 days, culture conditions supporting early erythroblasts, FIG. 1B
[13] = every other day dosing schedule

Sequence of HDAC2 (Q92769 whole entry): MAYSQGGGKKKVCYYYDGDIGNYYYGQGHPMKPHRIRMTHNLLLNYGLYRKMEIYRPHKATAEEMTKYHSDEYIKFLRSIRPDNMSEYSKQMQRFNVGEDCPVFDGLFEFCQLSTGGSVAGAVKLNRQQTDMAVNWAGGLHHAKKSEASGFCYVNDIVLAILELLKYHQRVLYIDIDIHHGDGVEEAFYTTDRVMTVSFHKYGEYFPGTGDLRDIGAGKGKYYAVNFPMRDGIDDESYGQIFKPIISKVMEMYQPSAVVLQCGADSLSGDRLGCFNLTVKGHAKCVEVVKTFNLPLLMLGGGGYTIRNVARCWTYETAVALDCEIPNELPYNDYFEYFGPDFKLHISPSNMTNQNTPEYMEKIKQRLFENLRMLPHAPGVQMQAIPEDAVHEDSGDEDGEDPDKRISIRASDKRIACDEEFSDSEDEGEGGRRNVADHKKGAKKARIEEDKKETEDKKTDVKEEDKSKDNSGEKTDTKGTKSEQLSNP
Sequence of HDAC1 (Q13547 whole entry): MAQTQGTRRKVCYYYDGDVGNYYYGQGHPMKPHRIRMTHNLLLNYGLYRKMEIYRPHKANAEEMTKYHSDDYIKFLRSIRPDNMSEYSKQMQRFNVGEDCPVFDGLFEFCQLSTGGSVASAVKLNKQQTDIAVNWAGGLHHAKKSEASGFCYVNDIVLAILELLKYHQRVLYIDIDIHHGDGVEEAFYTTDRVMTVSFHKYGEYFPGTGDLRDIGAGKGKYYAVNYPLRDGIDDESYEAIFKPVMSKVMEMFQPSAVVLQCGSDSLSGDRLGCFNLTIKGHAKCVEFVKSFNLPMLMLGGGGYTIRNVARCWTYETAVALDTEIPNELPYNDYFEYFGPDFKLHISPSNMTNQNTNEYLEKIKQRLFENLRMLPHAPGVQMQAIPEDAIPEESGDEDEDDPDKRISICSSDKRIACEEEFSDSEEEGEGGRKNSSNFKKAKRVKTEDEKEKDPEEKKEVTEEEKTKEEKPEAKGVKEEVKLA

`Nc1ccc(-c2cccs2)cc1NC(=O)c1ccc2nc(N3CCNCC3)ccc2c1` [Compound 001, N-(2-amino-5-(thiophen-2-yl)phenyl)-2-(piperazin-1-yl)quinoline-6-carboxamide] showed an IC50 ([1]; Table 2, read-out: IC50 HDAC1) of 4 nM, an IC50 ([1]; pre-incubation time of 24 hours, FIG. 9A, 17B, read-out: IC50 against HDAC1) of 7 nM and an IC50 ([2]; Table 2, read-out: IC50 HDAC2) of 15 nM. The IC50 ([2]; pre-incubation time of 24 hours, FIG. 9A, 17B, read-out: IC50 against HDAC2) was 18 nM, the “candidate gene expression ratio Bcl11a” value [3, 10] was 0.8 and the “candidate gene expression ratio Gata1” value [3, 10] was 1.0. The “candidate gene expression ratio Gata2” value [3, 10] was 2.8, the “candidate gene expression ratio KLF1” value [3, 10] was 0.9 and the “candidate gene expression ratio Myb” value [3, 10] was 1.1. The “candidate gene expression ratio Sox6” value [3, 10] was 0.4, the Bcl11a down-regulation ([3]; GeneChip, FIG. 1A) was 1.3 fold and the Gata2 up-regulation ([3]; GeneChip, FIG. 1A) was 2.8 fold. The Klf1 expression change ([3]; GeneChip, FIG. 1A) was “unaffected”, the Myb expression change ([3]; GeneChip, FIG. 1A) was “unaffected” and the Sox6 down-regulation ([3]; GeneChip, FIG. 1A) was 2.5 fold. The “Gata1 mRNA” value [4, 11] was “unaffected”, the “Gata2 mRNA” value [4, 11] was “induced” and the “Gata1 mRNA” value [4, 12] was “unaffected”. For the same compound, the “Gata2 mRNA” value [4, 12] was “induced”, the “Klf1 mRNA” value ([4]; QPCR, FIG. 1N) was “unaffected” and the “decrease in Bcl11a mRNA” value ([4]; QRT-PCR time course) was 2 fold. The “decrease in Sox6 mRNA” value ([4]; QRT-PCR time course) was 10 fold, the “increase in Gata2 mRNA” value ([4]; QRT-PCR time course) was 8 fold and the “Gata2 increase relative to control cells” value ([4]; day 2) was 2 fold. The “Gata2 increase relative to control cells” value ([4]; day 5) was 5 fold, the “Gata2 mRNA” value [5] was “induction of Gata2 mRNA” and the HbG [6] was “induced HbG”. The “erythroid differentiation (CD71/GlyA)” value ([7]; by day 8) was “block differentiation of proerythroblasts to basophilic erythroblasts”, the “erythroid differentiation (CD71/GlyA)” value ([7]; first 5 days) was “differentiated normally” and the RBC or platelets [8] was “no detected affect”. For the same compound, the “time of peak white blood cell suppression after the last dose” value [8] was 1 days, the “time to recovery of white blood cell counts to baseline after the last dose” value [8] was 5 days and the white blood cells ([8]; 25 or 75 mg/kg for 5 days) was “reversible suppression”. The “mode of HbF expression (HbE2 mRNA pattern)” value ([9]; 3 on 4 off dosing schedule) was “heterocellular mode of HbF expression”, the “myelosuppression (white blood cell counts)” value ([9]; 3 on 4 off dosing schedule) was “greater myelo suppression” and the “mode of HbF expression (HbE2 mRNA pattern)” value [9, 13] was “pancellular mode of HbF expression”. The “myelosuppression (white blood cell counts)” value [9, 13] was “less myelosuppression”.
